Where “and” joins values, the source holds several entries; their conditions need not be identical. Equal entries are not always repeated. Toxic doses and inconclusive results are not listed.

For this assay, the system named is L1210 leukemia ip in BDF1 mice, survival T/C. Nature of the assay: NCI In Vivo Anticancer Drug Screen. Data for tumor model L1210 Leukemia (intraperitoneal) in B6D2F1 (BDF1) mice. To be noted: endpoint: mean survival time, higher = longer survival. The gist of the method: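 Transplantable tumor model; survival measured in treated vs vehicle control mice. Value = treated/control.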

The mark [1] stands for this setting: dose: 400.0 mg/kg/injection, schedule: Q01DX001 (ip), vehicle: other.
[2] abbreviates: dose: 100.0 mg/kg/injection, schedule: Q01DX001 (ip), vehicle: saline.
Setting [3] is: dose: 200.0 mg/kg/injection, schedule: Q01DX001 (ip), vehicle: saline.
Setting [4] is: dose: 400.0 mg/kg/injection, schedule: Q01DX001 (ip), vehicle: saline.
The mark [5] stands for this setting: dose: 100.0 mg/kg/injection, schedule: Q04DX002 (ip), vehicle: Klucel (hydroxypropylcellulose) (HPC).
Setting [6] is: dose: 200.0 mg/kg/injection, schedule: Q04DX002 (ip), vehicle: Klucel (hydroxypropylcellulose) (HPC).
[7] abbreviates: dose: 400.0 mg/kg/injection, schedule: Q04DX002 (ip), vehicle: Klucel (hydroxypropylcellulose) (HPC).
Setting [8] is: dose: 50.0 mg/kg/injection, schedule: Q01DX001 (ip), vehicle: saline.
[9] abbreviates: dose: 100.0 mg/kg/injection, schedule: Q01DX009 (ip), vehicle: Klucel (hydroxypropylcellulose) (HPC).
Setting [10] is: dose: 200.0 mg/kg/injection, schedule: Q01DX009 (ip), vehicle: Klucel (hydroxypropylcellulose) (HPC).
Setting [11] is: dose: 400.0 mg/kg/injection, schedule: Q01DX009 (ip), vehicle: Klucel (hydroxypropylcellulose) (HPC).

In the case of `CCCSc1nc(N)nc2nc[nH]c12`, the T/C runs as follows: (dose: 1.25 mg/kg/injection, schedule: Q01DX Z (ip), vehicle: carboxymethylcellulose (CMC)) 91 % of control; (dose: 2.5 mg/kg/injection, schedule: Q01DX Z (ip), vehicle: carboxymethylcellulose (CMC)) 114 % of control; (dose: 2.9 mg/kg/injection, schedule: Q01DX Z (ip), vehicle: carboxymethylcellulose (CMC)) 114 % of control; (dose: 4.4 mg/kg/injection, schedule: Q01DX Z (ip), vehicle: carboxymethylcellulose (CMC)) 116 % of control; (dose: 5.0 mg/kg/injection, schedule: Q01DX Z (ip), vehicle: carboxymethylcellulose (CMC)) 118 % of control; (dose: 8.3 mg/kg/injection, schedule: Q01DX009 (ip), vehicle: saline) 102 % of control. Moreover, the T/C was 105 % of control (dose: 12.0 mg/kg/injection, schedule: Q01DX009 (ip), vehicle: saline); 151 % of control and 168 % of control (dose: 20.0 mg/kg/injection, schedule: Q01DX Z (ip), vehicle: carboxymethylcellulose (CMC)); 121 % of control (dose: 29.0 mg/kg/injection, schedule: Q01DX009 (ip), vehicle: Klucel (hydroxypropylcellulose) (HPC)); 150 % of control and 153 % of control and 156 % of control (dose: 40.0 mg/kg/injection, schedule: Q01DX Z (ip), vehicle: carboxymethylcellulose (CMC)); 108 % of control (dose: 62.0 mg/kg/injection, schedule: Q01DX001 (ip), vehicle: other); 119 % of control (dose: 62.0 mg/kg/injection, schedule: Q## X001 (ip), vehicle: other). Further, the T/C was 105 % of control (dose: 90.0 mg/kg/injection, schedule: Q01DX Z (ip), vehicle: carboxymethylcellulose (CMC)); 118 % of control and 88 % of control (dose: 125.0 mg/kg/injection, schedule: Q01DX001 (ip), vehicle: other); 123 % of control (dose: 125.0 mg/kg/injection, schedule: Q## X001 (ip), vehicle: other); 92 % of control (dose: 135.0 mg/kg/injection, schedule: Q01DX Z (ip), vehicle: carboxymethylcellulose (CMC)); 151 % of control (dose: 160.0 mg/kg/injection, schedule: Q01DX Z (ip), vehicle: carboxymethylcellulose (CMC)); 90 % of control (dose: 200.0 mg/kg/injection, schedule: Q01DX009 (ip), vehicle: saline). The T/C is 120 % of control and 124 % of control (dose: 250.0 mg/kg/injection, schedule: Q01DX001 (ip), vehicle: other); 115 % of control and 118 % of control (dose: 300.0 mg/kg/injection, schedule: Q01DX001 (ip), vehicle: other); 117 % of control (dose: 300.0 mg/kg/injection, schedule: Q## X001 (ip), vehicle: other); 101 % of control under setting [1]; 101 % of control (dose: 400.0 mg/kg/injection, schedule: Q## X001 (ip), vehicle: other); 203 % of control (dose: 500.0 mg/kg/injection, schedule: Q## X001 (ip), vehicle: other).

`C=CCNC(=O)N(CC=C)N=O`: the T/C (dose: 1.5 mg/kg/injection, schedule: Q01DX001 (ip), vehicle: carboxymethylcellulose (CMC)) was 102 % of control; the T/C (dose: 3.0 mg/kg/injection, schedule: Q01DX001 (ip), vehicle: carboxymethylcellulose (CMC)) was 95 % of control; the T/C (dose: 6.0 mg/kg/injection, schedule: Q01DX001 (ip), vehicle: carboxymethylcellulose (CMC)) was 96 % of control; the T/C (dose: 12.0 mg/kg/injection, schedule: Q01DX001 (ip), vehicle: carboxymethylcellulose (CMC)) is 90 % of control; the T/C (dose: 16.0 mg/kg/injection, schedule: Q01DX001 (ip), vehicle: carboxymethylcellulose (CMC)) was 102 % of control; the T/C (dose: 31.0 mg/kg/injection, schedule: Q01DX001 (ip), vehicle: carboxymethylcellulose (CMC)) was 104 % of control. The T/C (dose: 62.0 mg/kg/injection, schedule: Q01DX001 (ip), vehicle: carboxymethylcellulose (CMC)) is 100 % of control and the T/C (dose: 125.0 mg/kg/injection, schedule: Q01DX001 (ip), vehicle: carboxymethylcellulose (CMC)) is 96 % of control.

`Cc1cc(N=NC(=N)N)c(C(C)C)cc1NN=C(N)N`: the T/C by setting is: (dose: 60.0 mg/kg/injection, schedule: Q01DX Z (oral), vehicle: carboxymethylcellulose (CMC)) 106 % of control; (dose: 120.0 mg/kg/injection, schedule: Q01DX Z (oral), vehicle: carboxymethylcellulose (CMC)) 100 % of control; (dose: 480.0 mg/kg/injection, schedule: Q01DX Z (oral), vehicle: carboxymethylcellulose (CMC)) 102 % of control.

With `CS(=O)(=O)NC(=O)NCCCl`, the T/C is, setting by setting: (dose: 100.0 mg/kg/injection, schedule: Q01DX001 (ip), vehicle: other) 95 % of control; (dose: 200.0 mg/kg/injection, schedule: Q01DX001 (ip), vehicle: other) 95 % of control; under setting [1], 98 % of control.

`CCOC(=O)c1ccccc1NC(OCC)C(=O)c1ccccc1` (stereo unspecified) (tested in a mixture with another compound): the T/C reads like this: under setting [2], 96 % of control; under setting [3], 97 % of control; under setting [4], 103 % of control.

As to `O=C(Nc1cccc(Cl)c1)Oc1ccc(Cl)cc1Cc1ccccc1`, the T/C (dose: 100.0 mg/kg/injection, schedule: Q01DX009 (ip), vehicle: carboxymethylcellulose (CMC)) was 95 % of control and 91 % of control; the T/C under setting [5] is 121 % of control; the T/C (dose: 100.0 mg/kg/injection, schedule: Q04DX002 (ip), vehicle: carboxymethylcellulose (CMC)) is 100 % of control; the T/C (dose: 100.0 mg/kg/injection, schedule: Q04DX003 (ip), vehicle: carboxymethylcellulose (CMC)) is 94 % of control; the T/C (dose: 200.0 mg/kg/injection, schedule: Q01DX009 (ip), vehicle: carboxymethylcellulose (CMC)) is 95 % of control and 97 % of control; the T/C under setting [6] is 102 % of control. The T/C (dose: 200.0 mg/kg/injection, schedule: Q04DX002 (ip), vehicle: carboxymethylcellulose (CMC)) is 97 % of control and 107 % of control; the T/C (dose: 200.0 mg/kg/injection, schedule: Q04DX003 (ip), vehicle: carboxymethylcellulose (CMC)) was 97 % of control; the T/C (dose: 400.0 mg/kg/injection, schedule: Q01DX009 (ip), vehicle: carboxymethylcellulose (CMC)) was 93 % of control and 97 % of control; the T/C under setting [7] is 97 % of control; the T/C (dose: 400.0 mg/kg/injection, schedule: Q04DX002 (ip), vehicle: carboxymethylcellulose (CMC)) is 98 % of control and 100 % of control; the T/C (dose: 400.0 mg/kg/injection, schedule: Q04DX003 (ip), vehicle: carboxymethylcellulose (CMC)) is 94 % of control.

As to `Cc1cc(=O)[nH]c2nc(N)ccc12`, the T/C is 101 % of control under setting [8], 93 % of control under setting [2], 93 % of control under setting [3] and 101 % of control under setting [4].

Turning to `O=Cc1ccc(OC(=O)Nc2ccc([N+](=O)[O-])cc2)cc1`, the T/C under setting [9] was 92 % of control, the T/C under setting [10] was 90 % of control and the T/C under setting [11] was 95 % of control.

Consider `CCSCCC(C)(N)C(=O)O` (stereo unspecified), for which the T/C is, setting by setting: under setting [5], 97 % of control; under setting [6], 93 % of control; under setting [7], 89 % of control.

For the compound `O=C(Nc1cccc(Cl)c1)C1CCCC1=Nc1cccc(Cl)c1` (stereo unspecified), the T/C by setting is: under setting [8], 103 % of control; under setting [2], 100 % of control; under setting [3], 103 % of control; under setting [4], 94 % of control.

As to `COc1ccc(Br)c(CCC(C)C)c1O`, the T/C is 110 % of control under setting [9]; 108 % of control (dose: 100.0 mg/kg/injection, schedule: Q04DX003 (ip), vehicle: Klucel (hydroxypropylcellulose) (HPC)); 95 % of control under setting [10]; 103 % of control (dose: 200.0 mg/kg/injection, schedule: Q04DX003 (ip), vehicle: Klucel (hydroxypropylcellulose) (HPC)); 89 % of control under setting [11]; 101 % of control (dose: 400.0 mg/kg/injection, schedule: Q04DX003 (ip), vehicle: Klucel (hydroxypropylcellulose) (HPC)).

In the case of `CSc1cc2c(c(SC)c1[N+](=O)[O-])C(=O)c1ccccc1-2`, the T/C was 102 % of control (dose: 100.0 mg/kg/injection, schedule: Q01DX001 (ip), vehicle: carboxymethylcellulose (CMC)); 98 % of control (dose: 200.0 mg/kg/injection, schedule: Q01DX001 (ip), vehicle: carboxymethylcellulose (CMC)); 102 % of control (dose: 400.0 mg/kg/injection, schedule: Q01DX001 (ip), vehicle: carboxymethylcellulose (CMC)).
